Consider one sequence from patent US12370256B2, “Activation of resident memory T cells for the treatment of cancer” (Regents of the University of Minnesota, priority 2017, dated 2025).

The assay relates to B16 melanoma. The format is in vivo, C57B/6 mice.

Consider “SIINFEKL (Synthetically generated peptide)”, for which the “tumor growth (tumor size)” value (peptide alone, 0.5 μg in 30 μl PBS into established palpable tumor, once or twice 2 days apart, no adjuvant) is “significant inhibition of a rapidly growing tumor”. Further, under “peptide twice intratumorally over 48 h plus three i.v. injections of anti-PDL1”, the “tumor size and survival, peptide combined with PD-L1 blockade” value is recorded as “synergizes with PD-L1 blockade”.
